The test system of one experiment is ceramide neutralization. Briefly: Decitabine treatment of FLT3^ITD transgenic mice, gene expression by qRT-PCR. In kind it is in vivo. How it is done:
Decitabine treatment downregulates ceramide neutralization in FLT3^ITD transgenic mice while augmenting gdf1 expression. 8-12 week old mice harboring an internal tandem duplication in the Flt3 gene were treated with the hypomethylating agent, decitabine, at 0.2 mg/kg, 3 times weekly, for 6 weeks. Results were generated using qRT-PCR and normalized to housekeeping genes (Actb, RpII, Tbp). […] Treatment with decitabine reversed ugcg expression and led to downregulation of cers1 as compared to control mice. […] As expected, other related genes are also affected by decitabine treatment.
Hypomethylating Treatment Reverses the Effect of Leukemogenic Transgenes on Ceramide Detoxification. Myeloid hematological malignancies such as AML and myelodysplastic syndrome (MDS) are frequently treated with hypomethylating agents such as decitabine. In particular, treatment and management of MDS commonly utilizes these strategies to attempt to prevent the transformation of this bone marrow failure-like condition to AML. In this experiment, we utilized aged FLT3^ITD transgenic mice treated with/without decitabine and monitored the changes to the expression of genes in the bone marrow that regulate the production of bioactive sphingolipids.
(Quantitative PCR measures a nucleic acid by following its amplification.)

The test system of experiment [1] is AML cell lines (HL-60, Kasumi-1 and Kasumi-3). Briefly: Gdf1 treatment of AML cell lines, gene expression by qRT-PCR. The experiment is classed as cell-based. The conditions noted are these: 50 ng/mL, 24 hours; HL-60, Kasumi-1, Kasumi-3; compared to untreated counterparts. How it is done:
Gdf1 treatment of AML cell lines triggers downregulation of ceramide neutralization pathways. AML cell lines (HL-60, Kasumi-1 and Kasumi-3), were treated with recombinant human gdf1 at a concentration of 50 ng/mL for 24 hours. Results were obtained via qRT-PCR and compared to housekeeping genes (Actb, RpII).

In experiment [2] the test system is hematopoietic progenitor cells. Briefly: Gdf1 treatment of bone marrow, flow cytometry immunophenotyping of LT-HSC and MPP. In kind it is cell-based. The note with it: 50 ng/mL, 24 hours; bone marrow of hybrid mice. How it is done:
Gdf1 treatment promotes quiescence exit of hematopoietic progenitor cells. Bone marrow of hybrid mice was treated with human recombinant Gdf1 at a concentration of 50 ng/mL for 24 hours. Flow cytometry was used in immunophenotyping cells into subpopulations of long-term hematopoietic stem cells (LT-HSC) and multipotent progenitor cells (MPP). LT-HSCs were defined as Lin−, C-kit+, Sca-1+, CD150+, CD48−. MPPs were defined as Lin−, C-kit+, Sca-1+, CD150−, CD48−. Quiescent cells were defined as CD34+.
(In flow cytometry, cells or beads pass a laser one at a time.)

With `Nc1ncn([C@H]2C[C@H](O)[C@@H](CO)O2)c(=O)n1` [decitabine, 5-aza-2′-deoxycytidine], the gdf1 expression entry in the experiment with ceramide neutralization (FLT3^ITD mice, decitabine 0.2 mg/kg, 3 times weekly, 6 weeks) was “upregulated”. Moreover, the cers1 expression entry in the experiment on ceramide neutralization (FLT3^ITD mice, decitabine 0.2 mg/kg, 3 times weekly, 6 weeks, compared to control mice) is recorded as “downregulation”. The ugcg expression result in the experiment on ceramide neutralization (FLT3^ITD mice, decitabine 0.2 mg/kg, 3 times weekly, 6 weeks, qRT-PCR normalized to Actb, RpII, Tbp) is “reversed”. Besides, the “relationship between gdf1 and either ugcg or sgms1 expression” value in the experiment on ceramide neutralization (bone marrow of aged FLT3^ITD transgenic mice treated with/without decitabine) is “inverse relationship”.

B1: Gdf1: Recombinant human Growth Differentiation Factor 1, a BMP family member and TGF-beta signaling pathway intermediate (protein, listed as Homo sapiens)
chain: MPPPQQGPCGHHLLLLLALLLPSLPLTRAPVPPGPAAALLQALGLRDEPQGAPRLRPVPPVMWRLFRRRDPQETRSGSRRTSPGVTLQPCHVEELGVAGNIVRHIPDRGAPTRASEPASAAGHCPEWTVVFDLSAVEPAERPSRARLELRFAAAAAAAPEGGWELSVAQAGQGAGADPGPVLLRQLVPALGPPVRAELLGAAWARNASWPRSLRLALALRPRAPAACARLAEASLLLVTLDPRLCHPLARPRRDAEPVLGGGPGGACRARRLYVSFREVGWHRWVIAPRGFLANYCQGQCALPVALSGSGGPPALNHAVLRALMHAAAPGAADLPCCVPARLSPISVLFFDNSDNVVLRQYEDMVVDECGCR
Consider B1, for which, in experiment [1], the cers1 expression entry is “downregulated” and the ugcg expression result is “downregulated”. Also, in experiment [2], the “cells bearing the CD34 marker (quiescent cells) in LT-HSC and MPP populations” value is recorded as “decrease”; the “population of MPPs in the overall pool of analyzed cells” value was “increase”.

The values are drawn from patent US11225512B2, “Compositions and methods for ceramide-elevating therapeutic strategies” (University of New Hampshire, priority 2017, dated 2022).
